Where a name gives a salt, the structure may show the parent alone. Some results are limits rather than exact numbers.

Series [1] in a line: Water solubility of crosslinkers. Particulars: distilled water. In kind it is physicochemical.
Series [2] deals with human monoclonal IgM antibody 1688. The series can be described thus: Incorporation of TPCH versus TPMPH into IgM antibody 1688 (periodate oxidation, pyridine-2-thione release at 343 nm). The settings on record: identical coupling conditions, FIG. 2. How it is done: Human IgM (2.5 mg) in 0.1M sodium acetate, pH 5.5 (1 mg IgM/ml) was oxidized in the presence of 10.7 mg (50 μmoles) NaIO4 and 7 mg (19.8 μmoles) of TPCH. After 20 minutes at 0° C. the reaction mixture was chromatographed on a Sephadex G-25 column to remove access NaIO4 and uncoupled TPCH. The derivatized IgM molecules were eluted with 0.1M sodium phosphate, 0.1M sodium chloride, pH 7.5, and stored at 4° C. The extent of modification was determined to be 17 TPCH molecules per IgM by monitoring the release of pyridine-2-thione at 343 nm during incubation of the derivatized antibody in the presence of 10 mM dithiothreitol as described in J. Carlsson, H. Drevin, and R. Axen, Biochem. J., vol. […]
Human IgM (2.5 mg) was oxidized in 1.25 ml of 0.1M sodium acetate, pH 5.5, in the presence of 5.3 mg sodium periodate with either 6.9 mg (20 μmoles) of TPCH trihydrochloride (M.W.=353.5 daltons) or 4.4 mg (20 μmoles) of TPMPH (M.W.=229.3 daltons) at 0° C. […] The derivatized IgM molecules were eluted with 0.1M sodium phosphate, 0.1 M sodium chloride, pH 7.5 The extent of modification was determined as described above.
Human IgM (2.5 mg) was oxidized in the presence of 0.27 mg sodium periodate under identical conditions as described above. The extent of derivatization was determined after 20 minutes of incubation using the procedure described above.

Compound `NNC(=O)CCSSc1ccccn1` [TPMPH, S-(2-thiopyridyl)-mercaptopropionic acid hydrazide] showed a maximum solubility in series [1] of 150 mM. Besides, the “increase in time required for incorporation of comparable amounts of crosslinker per antibody, versus TPCH” value in series [2] is ~3 fold.

In the case of `NNC(=O)[C@@H](N)CSSc1ccccn1` [TPCH, S-(2-Thiopyridyl)-L-Cysteine Hydrazide Trihydrochloride], in series [1], the “water solubility (concentration to which it can be easily dissolved)” value was ≥ 1000 mM.
